Earlier results as cited in patent US20210024636A1, “COMPOSITIONS AND METHODS FOR TREATING SEXUAL DYSFUNCTION” (ChemistryRX, priority 2019, published 2021).

What was measured:
[1] = test system: T-cell adhesion to ICAM-1; details: human T-cell line, in vitro
[2] = test system: human peripheral blood mononuclear cells; details: in vitro

CS(=O)(=O)c1cccc(C[C@H](NC(=O)c2c(Cl)cc3c(c2Cl)CCN(C(=O)c2ccc4ccoc4c2)C3)C(=O)O)c1 [lifitegrast]
inhibition of T-cell adhesion to ICAM-1 [1]: may inhibit T-cell adhesion to ICAM-1 | inhibition of secretion of inflammatory cytokines [2]: may inhibit secretion of inflammatory cytokines
